Series [1] concerns luciferase expression in the liver. The series can be described thus: Luciferase mRNA in vivo evaluation using lipid nanoparticle compositions (liver luciferase expression). Also on record: species or system mice. Conditions: tail vein injection, ng luciferase/g liver 4 hours after administration; for Liver Luc @ 0.3 mg/kg: 0.3 mg mRNA/kg; for Liver Luc @ 1.0 mg/kg: 1.0 mg mRNA/kg. As to the method:
(§1) A lipid of structure (I), DSPC, cholesterol and PEG-lipid are solubilized in ethanol at a molar ratio of 50:10:38.5:1.5 or 47.5:10:40.7:1.8. Lipid nanoparticles (LNP) are prepared at a total lipid to mRNA weight ratio of approximately 10:1 to 40:1. Briefly, the mRNA is diluted to 0.2 mg/mL in 10 to 50 mM citrate buffer, pH 4 or 10 to 25 mM acetate buffer, pH 4. Syringe pumps are used to mix the ethanolic lipid solution with the mRNA aqueous solution at a ratio of about 1:5 to 1:3 (vol/vol) with total flow rates above 15 mL/min. The ethanol is then removed, and the external buffer replaced with PBS by dialysis. Finally, the lipid nanoparticles are filtered through a 0.2 µm pore sterile filter.
Studies are performed in 6-8-week-old female C57BL/6 mice (Charles River) or 8-10-week-old CD-1 (Harlan) mice (Charles River) according to guidelines established by an institutional animal care committee (ACC) and the Canadian Council on Animal Care (CCAC). Varying doses of mRNA-lipid nanoparticle are systemically administered by tail vein injection and animals euthanized at a specific time point (e.g., 4 hours) post-administration. Liver and spleen are collected in pre-weighed tubes, weights determined, immediately snap frozen in liquid nitrogen, and stored at −80° C. until processing for analysis.
For liver, approximately 50 mg is dissected for analyses in a 2 mL FastPrep tubes (MP Biomedicals, Solon OH). ¼″ ceramic sphere (MP Biomedicals) is added to each tube and 500 μL of Glo Lysis Buffer—GLB (Promega, Madison WI) equilibrated to room temperature is added to liver tissue. Liver tissues are homogenized with the FastPrep24 instrument (MP Biomedicals) at 2×6.0 m/s for 15 seconds. Homogenate is incubated at room temperature for 5 minutes prior to a 1:4 dilution in GLB and assessed using SteadyGlo Luciferase assay system (Promega). Specifically, 50 μL of diluted tissue homogenate is reacted with 50 μL of SteadyGlo substrate, shaken for 10 seconds followed by 5-minute incubation and then quantitated using a CentroXS^3 LB 960 luminometer (Berthold Technologies, Germany). The amount of protein assayed is determined by using the BCA protein assay kit (Pierce, Rockford, IL). Relative luminescence units (RLU) are then normalized to total μg protein assayed. To convert RLU to ng luciferase a standard curve is generated with QuantiLum Recombinant Luciferase (Promega).
The FLuc mRNA (L-6107) from Trilink Biotechnologies will express a luciferase protein, originally isolated from the firefly, photinus pyralis. FLuc is commonly used in mammalian cell culture to measure both gene expression and cell viability. It emits bioluminescence in the presence of the substrate, luciferin. This capped and polyadenylated mRNA is fully substituted with 5-methylcytidine and pseudouridine.
(§2) Representative compounds of the disclosure shown in Table 2 were formulated using the following molar ratio: 50% cationic lipid/10% distearoylphosphatidylcholine (DSPC)/38.5% Cholesterol/1.5% PEG lipid 2-[2-(ω-methoxy(polyethyleneglycol2000)ethoxy]-N,N-ditetradecylacetamide) or 47.5% cationic lipid/10% DSPC/40.7% Cholesterol/1.8% PEG lipid. Activity was determined by measuring luciferase expression in the liver 4 hours following administration via tail vein injection as described in Example 1 or by measuring the amount of human IgG in mouse serum as described in Example 2. The activity was compared at a dose of 1.0 or 0.5 or 0.3 mg mRNA/kg and expressed as ng luciferase/g liver measured 4 hours after administration, as described in Example 1 or as μg IgG/mL serum measured 24 hours after administration, as described in Example 2. Compound numbers in Table 2 refer to the compound numbers of Table 1.

The nature of series [2]: Determination of pKa of formulated lipids (TNS fluorescence assay in lipid nanoparticles). The following applies: lipid nanoparticles (compound/DSPC/cholesterol/PEG-lipid), lipid formulated in LNP (cationic lipid/DSPC/cholesterol/PEG-lipid), pH of half-maximal fluorescence. Type of series: physicochemical. As to the method: As described elsewhere, the pKa of formulated lipids is correlated with the effectiveness of LNPs for delivery of nucleic acids (see Jayaraman et al, Angewandte Chemie, International Edition (2012), 51(34), 8529-8533; Semple et al, Nature Biotechnology 28, 172-176 (2010)). In some embodiments, the preferred range of pKa is ˜5 to ˜7. The pKa of each lipid is determined in lipid nanoparticles using an assay based on fluorescence of 2-(p-toluidino)-6-napthalene sulfonic acid (TNS). Lipid nanoparticles comprising compound of structure (I)/DSPC/cholesterol/PEG-lipid (50/10/38.5/1.5 or 47.5:10:40.7:1.8 mol %) in PBS at a concentration of 0.4 mM total lipid are prepared using the in-line process as described in Example 1. TNS is prepared as a 100 μM stock solution in distilled water. Vesicles are diluted to 24 μM lipid in 2 mL of buffered solutions containing 10 mM HEPES, 10 mM MES, 10 mM ammonium acetate, and 130 mM NaCl, where the pH ranged from 2.5 to 11. An aliquot of the TNS solution is added to give a final concentration of 1 μM and following vortex mixing fluorescence intensity is measured at room temperature in a SLM Aminco Series 2 Luminescence Spectrophotometer using excitation and emission wavelengths of 321 nm and 445 nm. A sigmoidal best fit analysis is applied to the fluorescence data and the pKa is measured as the pH giving rise to half-maximal fluorescence intensity.

In another series the test system is human IgG in mouse serum. Description: Immunoglobulin G (IgG) mRNA in vivo evaluation using lipid nanoparticle compositions (human IgG ELISA). Conditions: tail vein injection, μg IgG/mL serum 24 hours after administration; for Serum IgG @ 0.3 mg/kg: 0.3 mg mRNA/kg; for Serum IgG @ 1.0 mg/kg: 1.0 mg mRNA/kg. Also on record: species or system mice. As to the method:
as §1
Studies are performed in 6-8-week-old CD-1/ICR mice (Envigo) according to guidelines established by an institutional animal care committee (ACC) and the Canadian Council on Animal Care (CCAC). Varying doses of mRNA-lipid nanoparticle are systemically administered by tail vein injection and animals euthanized at a specific time point (e.g., 24 hours) post-administration. The whole blood is collected, and the serum subsequentially separated by centrifuging the tubes of the whole blood at 2000×g for 10 minutes at 4° C. and stored at −80° C. until use for analysis.
For immunoglobulin G (IgG) ELISA (Life Diagnostics Human IgG ELISA kit), the serum samples are diluted at 100 to 15000 folds with 1× diluent solution. 100 μL of diluted serum is dispensed into anti-human IgG coated 96-well plate in duplicate alongside human IgG standards and incubated in a plate shaker at 150 rpm at 25° C. for 45 minutes. The wells are washed 5 times with 1× wash solution using a plate washer (400 μL/well). 100 μL of HRP conjugate is added into each well and incubated in a plate shaker at the same condition above. The wells are washed 5 times again with 1× wash solution using a plate washer (400 μL/well). 100 μL of TMB reagent is added into each well and incubated in a plate shaker at the same condition above. The reaction is stopped by adding 100 μL of Stop solution to each well. The absorbance is read at 450 nm (A450) with a microplate reader. The amount of human IgG in mouse serum is determined by plotting A450 values for the assay standard against human IgG concentration.
as §2

Marks after values point to notes of the source that are not given here.

The results in this text go back to US20240270679A1, “LIPIDS FOR USE IN LIPID NANOPARTICLE FORMULATIONS” (Acuitas Therapeutics, Inc., priority 2022, published 2024).

For `CCCCCCCCC(CCCCCC)COC(=O)CCCCCN(CCCCCC(=O)OCC(CCCCCC)CCCCCCCC)CCN(C)CCCCNC(=O)CCCCCCC` (centres unmarked) [Compound I-1, bis(2-hexyldecyl) 6,6′-((2-(methyl(4-octanamidobutyl)amino)ethyl)azanediyl)dihexanoate], in series [1], the “Liver Luc @ 0.3 mg/kg” value worked out at 5497 ± 1457 ng/g and the “Liver Luc @ 1.0 mg/kg” value is 13160 ± 5805 ng/g. Moreover, the pKa in series [2] is 6.64.

For the compound `CCCCCCCCCCCCCC(=O)NCCCCN(C)CCN(CCCCCC(=O)OCC(CCCCCC)CCCCCCCC)CCCCCC(=O)OCC(CCCCCC)CCCCCCCC` (centres unmarked) [Compound I-3, bis(2-hexyldecyl) 6,6′-((2-(methyl(4-tetradecanamidobutyl)amino)ethyl)azanediyl)dihexanoate], the “Liver Luc, determined at 0.5 mg/kg” value in series [1] (0.5 mg mRNA/kg (footnote *)) is given as 31 ± 6* ng/g. Also, in series [2], the pKa came to 6.7.

Take `CCCCCCCCC(=O)NCCCN(C)CCN(CCCCCCCC(=O)OCC(CCCCCC)CCCCCCCC)CCCCCCCC(=O)OCC(CCCCCC)CCCCCCCC` (centres unmarked) [Compound I-4, bis(2-hexyldecyl) 8,8′-((2-(methyl(3-nonanamidopropyl)amino)ethyl)azanediyl)dioctanoate]: in series [1], the “Liver Luc @ 0.3 mg/kg” value is recorded as 7747 ± 1565 ng/g and the “Liver Luc @ 1.0 mg/kg” value was found to be 24964 ± 8175 ng/g. For the same compound, the pKa in series [2] is 6.7.

Take `CCCCCCCCC(CCCCCC)COC(=O)CCCCCCCN(CCCCCCCC(=O)OCC(CCCCCC)CCCCCCCC)CCN(C)CCCCNC(=O)CCCCCCC` (centres unmarked) [Compound I-5, bis(2-hexyldecyl) 8,8′-((2-(methyl(4-octanamidobutyl)amino)ethyl)azanediyl)dioctanoate]: in series [1], the “Liver Luc @ 0.3 mg/kg” value is on record as 6538 ± 11243 ng/g and the “Liver Luc @ 1.0 mg/kg” value was 43609 ± 9207 ng/g. For the same compound, the pKa in series [2] was found to be 6.68.

Consider `CCCCCCCC(=O)NCCCCN(C)CCN(CCCCCCCCCOC(=O)C(CCCC)CCCCCC)CCCCCCCCCOC(=O)C(CCCC)CCCCCC` (centres unmarked) [Compound I-6, ((2-(methyl(4-octanamidobutyl)amino)ethyl)azanediyl)bis(nonane-9,1-diyl)bis(2-butyloctanoate)], for which, in series [1], the “Liver Luc @ 0.3 mg/kg” value was found to be 12241 ± 3108 ng/g and the “Liver Luc @ 1.0 mg/kg” value is listed as 67044 ± 44033 ng/g. Also, the pKa in series [2] is 6.56.

As for `CCCCCCCCCCNC(=O)CCCCCN(C)CCN(CCCCCC(=O)OCC(CCCCCC)CCCCCCCC)CCCCCC(=O)OCC(CCCCCC)CCCCCCCC` (centres unmarked) [Compound I-7, bis(2-hexyldecyl) 6,6′-((2-((6-(decylamino)-6-oxohexyl)(methyl)amino)ethyl)azanediyl)dihexanoate], in series [1], the “Liver Luc @ 0.3 mg/kg” value was determined as 10812 ± 2335 ng/g and the “Liver Luc @ 1.0 mg/kg” value stood at 44836 ± 12026 ng/g. Also, the pKa in series [2] is 6.57.

For `CCCCCCCCC(CCCCCC)C(=O)OCCCCCCN(CCCCCCOC(=O)C(CCCCCC)CCCCCCCC)CCN(C)CCCC(=O)N(CCCC)CCCC` (centres unmarked) [Compound I-8, ((2-((4-(dibutylamino)-4-oxobutyl)(methyl)amino)ethyl)azanediyl)bis(hexane-6,1-diyl)bis(2-hexyldecanoate)], in series [1], the “Liver Luc @ 0.3 mg/kg” value came to 16110 ± 2654 ng/g and the “Liver Luc @ 1.0 mg/kg” value is 56927 ± 16125 ng/g. In series [2], the pKa was determined as 6.13.

As for `CCCCCCCCC(CCCCCC)COC(=O)CCCCCN(CCCCCC(=O)OCC(CCCCCC)CCCCCCCC)CCN(C)CCCCCC(=O)N(C)CCCCCCCC` (centres unmarked) [Compound I-10, bis(2-hexyldecyl) 6,6′-((2-(methyl(6-(methyl(octyl)amino)-6-oxohexyl)amino)ethyl)azanediyl)dihexanoate], in series [1], the “Liver Luc @ 0.3 mg/kg” value turned out to be 9794 ± 1750 ng/g and the “Liver Luc @ 1.0 mg/kg” value is 43271 ± 18103 ng/g. The compound also returned a pKa in series [2] of 6.33.

Take `CCCCCCCCC(CCCCCC)COC(=O)CCCCCN(CCCCCC(=O)OCC(CCCCCC)CCCCCCCC)CCN(C)CCCCCC(=O)NCC(CC)CCCC` (centres unmarked) [Compound I-11, bis(2-hexyldecyl) 6,6′-((2-((6-((2-ethylhexyl)amino)-6-oxohexyl)(methyl)amino)ethyl)azanediyl)dihexanoate]: in series [1], the “Liver Luc @ 0.3 mg/kg” value was determined as 16601 ± 5871 ng/g and the “Liver Luc @ 1.0 mg/kg” value came out at 66075 ± 18868 ng/g. Further, in series [2], the pKa came to 6.27.

Regarding `CCCCCCCCC(CCCCCC)C(=O)OCCCCCCN(CCCCCCOC(=O)C(CCCCCC)CCCCCCCC)CCCCN(C)CCCCC(=O)N(CCCCCC)CCCCCC` (centres unmarked) [Compound I-47, ((4-((5-(dihexylamino)-5-oxopentyl)(methyl)amino)butyl)azanediyl)bis(hexane-6,1-diyl)bis(2-hexyldecanoate)], in the series with human IgG in mouse serum, the “Serum IgG @ 0.3 mg/kg” value was found to be 15.3 ± 3.7 µg/mL and the “Serum IgG @ 1.0 mg/kg” value amounted to 61.8 ± 11.5 µg/mL. The compound further came in with a pKa in series [2] of 6.45.

`CCCCCCCCCCN(CCCCCCCCCC)C(=O)CCCCN(C)CCCCN(CCCCCCOC(=O)C(CCCCCC)CCCCCCCC)CCCCCCOC(=O)C(CCCCCC)CCCCCCCC` (centres unmarked) [Compound I-48, ((4-((5-(didecylamino)-5-oxopentyl)(methyl)amino)butyl)azanediyl)bis(hexane-6,1-diyl)bis(2-hexyldecanoate)]: in the series on human IgG in mouse serum, the “Serum IgG @ 0.3 mg/kg” value worked out at 4.4 ± 1.1 µg/mL and the “Serum IgG @ 1.0 mg/kg” value turned out to be 21.8 ± 5.0 µg/mL. In addition, in series [2], the pKa worked out at 6.37.
